Measurements taken from patent publication US9133154B2, “Substituted 3-phenylpropylamine derivatives for the treatment of ophthalmic diseases and disorders” (Acucela Inc., priority 2013, dated 2015).
“And” between values parts separate entries of the source, which are not always exact repeats. Identical values can stand only once. “Also recorded” adds a separate entry of the source. Like-named read-outs stand apart in the source and are kept apart here.

How the values were obtained:
[1] = tested on: accumulation of A2E in the eyes; assay: A2E accumulation model; type: in vivo, abca4−/−, RPE65 Leu450Leu mice; details: for Day 91 A2E Concentration, individual animals: 91 days, left eye, animals 1-8, listed as Test cmpd
Procedure: The purpose of this study was to assess the ability of test compounds to inhibit the accumulation of A2E in the eyes of abca4^−/−, RPE65 Leu450Leu mice (ABCR) following 91 days of continuous dosing.
The test compound (R)-3-amino-1-(3-((tetrahydro-2H-pyran-4-yl)methoxy)phenyl)-propan-1-ol (Example 1) was stored in a freezer set to maintain at approximately −20° C.
On the day prior to dosing and once weekly for 13 weeks the test articles were weighed into new empty glass scintillation vials. The compound was dissolved in ethanol (10% of final volume) and then diluted with deionized water (90% of total final volume) resulting in a concentrations of 0.2 mg/mL. This dosing solution was administered to the high dose groups (1 mg/kg). For the low dose groups (0.1 mg/kg) a […] dosing solution was prepared by diluting with vehicle (10% ethanol 90% water) to the appropriate concentration. The dosing solutions were stored in a refrigerator set to maintain between 2 to 8° C. and used for dose administration once per day for one week. The vehicle used for dosing control groups was 10% ethanol 90% deionized water.
Male and female abca4^−/−, and RPE65 Leu450Leu, mice (Charles River Laboratories) were used for this study. The mice were approximately 8-12 week old at the initiation of dosing with a starting average body weight of 19 grams for females and 27 grams for males.
Group 1 animals (Time zero for A2E accumulation) were euthanized with carbon dioxide followed by cervical dislocation on the first day of dosing. Immediately following the cervical dislocation both eyes of the animal was removed and transferred into separate tubes, flash frozen in liquid nitrogen and stored in the dark at −80° C. until processing and analysis.
The remaining groups (2-4) were dosed once each day for 13 weeks. When dosed each animal was administered a 5 mL/kg dose of the appropriate test compound or vehicle via oral gavage using a 1 mL syringe fitted with a 20 gauge oral gavage needle. Upon the completion of the study, animals were euthanized with carbon dioxide followed by cervical dislocation. Immediately following the cervical dislocation both eyes of the animal was removed and transferred into separate tubes, flash frozen in liquid nitrogen and stored in the dark at −80° C. until processing and analysis for A2E concentration.
(§1) All sample processing procedures were performed in the dark under red light.
Extracted samples were analyzed using an Agilent 1100 HPLC system according to the procedure outlined in Table 21 (See Below)
HPLC analysis of the eyes looks at the peak area units of the A2E present in the eyes following extraction as described above.
Data analysis % inhibition (drug vs. recovery control), % control (drug vs. light control), and One-way ANOVA (followed by Tukey's Multiple Comparison) were performed using peak area units and performed by Prism software. Data are represented as mean and standard deviation.

[2] = tested on: retinal isomerase activity (recovery of 11-cis-retinal); assay: Comparative in vivo murine isomerase assay, dose response; set-up: species or system BALB/c mice; details: for Avg. % Inhibition: 11-cis-retinal, drug vs. recovery control, listed as cmpd A
Procedure: (§2) All test compounds were stored at room temperature, dessicated.
On the day prior to dose administration compound A and compound D were weighed into new empty glass vials. The compounds were dissolved in di-water at the concentration of 0.833 mg/mL compound A and 0.892 mg/mL compound D, serially diluted into various concentrations, and stored overnight at 4° C.
56 Male BALB/c mice (Charles River Laboratories) were used for this study. The mice were approximately 8 weeks at the initiation of dosing with an average body weight of 24 grams.
The day prior to dose administration 56 BALB/c mice were placed into a dark room and dark adapted for a minimum of 12 hours prior to dose administration. The mice were maintained in the dark for the duration of the study.
(§3) Each animal was removed from its cage and dosed accordingly to the study design in Table 4 (see below). Each animal was administered 0.1 mL of the appropriate compound or vehicle via oral gavage using a 1 mL syringe fitted with a 23 gauge oral gavage needle. Two hours following dose administration, animals were removed from the dark and exposed to 5000 Lux white light for 10 minutes to photobleach their eyes. Following the completion of the photobleach the animals were returned to the dark for 2 hours to allow for the regeneration of 11-cis-retinal in the eyes. Two hours after photobleaching each animal was euthanized with carbon dioxide followed by cervical dislocation, in the dark under red light. The light control group was euthanized immediately following photobleaching. Immediately following the cervical dislocation both eyes of each animal were removed and transferred into separate tubes, flash frozen in liquid nitrogen and stored in the dark at −80° C. until processing and analysis.
as §1
Extracted samples were analyzed using an Agilent 1100 HPLC system according to the procedure outlined in Table 6 (see below)
(§4) HPLC analysis of the eyes measures the peak area units of the 110cis-Ral-Oxime_syn. Signal.
(§5) Data analysis % inhibition (drug vs. recovery control). % control (drug vs. light control), and One-way ANOVA (followed by Tukey's Multiple Comparison) were performed using peak area units and performed by Prism software. Data are represented as mean and standard deviation.

[3] = tested on: regeneration of 11-cis-retinal; assay: Single dose time course in the in vivo isomerase assay at 0.3 mg/kg; set-up: species or system BALB/c mice; details: for activity at 0.3 mg/kg: Mus musculus, read-out: Percent Control (Avg. % Inhibition)
Procedure: as §2
The compounds were dissolved in di-water at the concentration of 0.068 mg/mL and stored overnight at 4° C.
52 Male BALB/c mice (Charles River Laboratories) were used for this study. The mice were approximately 8 weeks at the initiation of dosing with an average body weight of 23 grams.
The day prior to dose administration 52 BALB/c mice were placed into a dark room and dark adapted for a minimum of 12 hours prior to dose administration. The mice were maintained in the dark for the duration of the study.
as §3, with “Table 10” for “Table 4”, “appropriate test article” for “appropriate compound”, “vehicle orally” for “vehicle via oral gavage”, “needle. At 2, 4, 6, 8, 16 or 24” for “needle. Two”
as §1
Extracted samples were analyzed using an Agilent 1100 HPLC system according to the procedure outlined in Table 12 (see below)
as §4, §5

[4] = BALB/c mice, single oral dose, 2 hours

SMILES: NCC[C@@H](O)c1cccc(OCC2CCOCC2)c1 [Example 1]
- Day 91 A2E Concentration, individual animals ([1]; 0.1 mg/kg oral once daily): 9.64 Pico Moles/eye and 8.97 Pico Moles/eye and 10.23 Pico Moles/eye and 8.42 Pico Moles/eye and 8.49 Pico Moles/eye and 9.6 Pico Moles/eye and 11.68 Pico Moles/eye and 10.27 Pico Moles/eye
- Day 91 A2E Concentration, individual animals ([1]; 1.0 mg/kg oral once daily): 6.49 Pico Moles/eye and 7.68 Pico Moles/eye and 7.75 Pico Moles/eye and 8.87 Pico Moles/eye and 7.56 Pico Moles/eye and 8.01 Pico Moles/eye and 8.86 Pico Moles/eye and 9.49 Pico Moles/eye
- effect on the accumulation of A2E ([1]; 91 days of oral dosing at 0.1 mg/kg and 1.0 mg/kg): statistically significant inhibitory effects on the accumulation of A2E
- inhibition at 0.1 mg/kg ([1]; Mus musculus, 2184 h, 0.1 mg/kg daily oral administration for 91 days): 46.4%
- inhibition at 1 mg/kg ([1]; Mus musculus, 2184 h, 1 mg/kg daily oral administration for 91 days): 65%
- Avg. % Inhibition ([2]; BALB/c mice, oral 0.3 mg/kg, 2 hours, 0.3 mg/kg): 92.4%
- Avg. % Inhibition ([2]; BALB/c mice, oral 0.5 mg/kg, 2 hours, 0.5 mg/kg): 99.3%
- significance of inhibitory effect on the recovery of 11-cis-retinal vs. recovery control ([2]; BALB/c mice, single oral dose 0.03-3 mg/kg, 2 hours, listed as compound A): statistically significant difference, P<0.001 for 0.3, 0.5, 1 and 3 mg/kg dose levels; also recorded: significant inhibitory effect at 0.3 mg/kg, 0.5 mg/kg, 1 mg/kg and 3 mg/kg dose levels
- IC50 (dose response experiment) [2, 4]: 0.17 mg/kg
- dose at which 11-cis-retinal recovery was inhibited by 50% [2, 4]: 0.17 mg/kg
- times more active than compound D ([2]; by IC50 of the dose response experiment): 3-4 ×
- times more active than compound D ([2]; by dose showing nearly 100% inhibition (0.5 vs 3.0 mg/kg)): approximately 6 ×
- times more active than compound D ([2]; by inhibition at a dose of 0.3 mg/kg): greater than 10 ×
- significance of inhibitory effect on the recovery of 11-cis-retinal vs. recovery control ([3]; BALB/c mice, single oral 0.3 mg/kg, 2, 4, 6, 8, 16 and 24 hours, listed as compound A, 0.3 mg/kg): statistically significant difference, P<0.001, from the recovery control group for the 2, 4 and 6 hour time points; also recorded: not a statistically significant difference, P>0.05 for the 8, 16 and 24 time points; also recorded: significant inhibitory effect at 2, 4 and 6 hours; also recorded: no significant effect on the recovery of 11-cis-retinal at the 8, 16 and 24 hour time points; also recorded: statistically significant from the control group at the 2, 4, and 6 hour time points
- activity at 0.3 mg/kg ([3]; BALB/c mice, single oral 0.3 mg/kg, time point 2 hours): 2%
- activity at 0.3 mg/kg ([3]; BALB/c mice, single oral 0.3 mg/kg, time point 4 hours): 11.5%
- activity at 0.3 mg/kg ([3]; BALB/c mice, single oral 0.3 mg/kg, time point 6 hours): 43.7%
- activity at 0.3 mg/kg ([3]; BALB/c mice, single oral 0.3 mg/kg, time point 8 hours): 79.8%
- activity at 0.3 mg/kg ([3]; BALB/c mice, single oral 0.3 mg/kg, time point 16 hours): 98.5%
- activity at 0.3 mg/kg ([3]; BALB/c mice, single oral 0.3 mg/kg, time point 24 hours): 95.8%
- times more active than compound D ([3]; time course experiment, 0.3 mg/kg): greater than 10 ×
